Measured values reported in patent publication US8288394B2, “1-(1H-1,2,4-triazol-1-yl)butan-2-ol derivative for pharmaceutical use, and the use of a 1-(1H-1,2,4-triazol-1-yl)butan-2-ol derivative with substantially undefined crystal shape for preparing said 1-(1H-1,2,4-triazol-1-yl)butan-2-ol derivative” (Medichem, S.A., priority 2009, dated 2012).

Experiments:
Type in all cases: physicochemical
[1] = Particle size distribution, laser diffraction (Malvern Mastersizer S, wet); conditions: for Particle Size Distribution D10 / Particle Size Distribution D50 / Particle Size Distribution D90: by volume, mean of six; for D[3,2] (Sauter diameter, DMVS): mean diameter by surface area to volume; for Particle Size Distribution D[4,3]: mean diameter by volume
Text: The particle size parameters measured in the present invention have been obtained by means of laser light diffraction technique, and specifically by means of a Malvern Mastersizer S particle size analyzer having characteristics as set out below. Namely, the laser source used was a 2 milliwatt Helium/neon laser (633 nm wavelength); the detection system was a Fourier Transform lens system; the sample was run using a 2.40 mm lens; the sample unit was a sample unit for wet measurement, and particularly was a MS1-Small volume Sample Dispersion Unit stirred cell. The wet dispersion was prepared by using deionized water as a dispersant, and the dispersion was controlled by stirring the unit cell. […] The characterization parameters (volume distributions) were measured for at least six times for each sample, and the result is a mean of said measured values for each sample.
The sample was run using the 2.40 mm lens. The sample unit was a MS1-Small Volume Sample Dispersion Unit stirred cell. The dispersant was deionized water. The sample particle size distribution was assumed to follow a normal distribution.
Analysis model: polydisperse. Setup presentation: 3_WATERF. Particle R.I.=(1.6800, 0.01). Dispersant R.I.=1.33.
This sample was sonicated for 2 minutes and delivered dropwise to the previously background and corrected measuring cell filled with dispersant (deionized water) until the obscuration reached the desired level. Volume distributions were obtained for at least six measures. For characterization, the values of D10, D50 and D90 (by volume), D[4,3] (mean diameter by volume) and D[3,2] (mean diameter by surface area to volume, or Sauter diameter) were specifically listed, each one being the mean of the six values available for each characterization parameter.
The notation DX [also written as D(v, 0.X)] means that X % of the particles have a diameter less than a specified diameter D. Thus a D90 [or D(v, 0.9)] of 100 μm means that 90% of the particles have a diameter less than 100 μm.

[2] = BET specific surface area (Micromeritics Gemini V, N2 at 77 K); conditions: N2 adsorption at 77 K
Text: The specific surface area values disclosed in the present invention have been obtained by means of a specific surface area analysis technique based on the BET (Brunauer, Emmett and Teller) theory, which is a well-accepted theory known in the art for the calculation of surface areas of solids by means of measuring their physical adsorption of gas molecules (See S. Brunauer, P. H. Emmett and E. Teller, J. Am. Chem. Soc., 1938, 60, 309). In particular, the specific surface area values measured in the present invention have been calculated from the BET surface area plot obtained by measuring the quantity of nitrogen gas molecules adsorbed by a weighted amount of solid at different relative pressures (P/P0) within the range 0.05-0.3, at 77 K. Precisely, the measurement of the adsorption of gas molecules was carried out by means of a Micromeritics™ Gemini V equipment having the characteristics as set out below. Namely, the gas used for adsorption measure was nitrogen gas. […] The sample for analysis was degassed (at 30° C. for 10 minutes and at 80° C. for one hour). The determination of the adsorption of nitrogen was measured at 77 K and for twelve relative pressures sufficiently dispersed within in the range of 0.05 to 0.3. (i.e. twelve absolute pressures in the range of 38.425 mmHg to 230.000 mmHg relative to a saturated pressure of 764,480 mmHg).
The sample for analysis was degassed at 30° C. for 10 minutes and at 80° C. for one hour.

[3] = Particle density by pycnometry; conditions: pycnometry at 25° C., n-heptane, mean of three
Description: The particle density experimental values were obtained by means of a pycnometer, specifically a 50 mL glass pycnometer. The measurements were carried out under technical characteristics as set out below. Namely, the determinations were done at 25° C.; the liquid of reference was n-heptane; the measurements were carried out three times, and the result is the mean of said measured values.

[4] = Sphericity factor calculated from density, Sauter diameter and specific surface area
Text: Flowability affects the ease with which the material is handled during processing into a pharmaceutical product. When the flowability is poor, problems occur with handling and processing during formulation. It is known that the shape of a particle affects its handling and flow properties. However, quantification of particle shape is extremely difficult for irregular and/or micronized particles. One of the most common ways of expressing the degree of irregularity of the particles is by means of the sphericity factor (ΨW), which is generally defined as the ratio between the surface area of a sphere having the same volume as the particle and the surface area of the particle:
[formula] where dv and ds are the equivalent volume and surface diameter, respectively (Part. Part. Syst. Charact. 1996, 13, 368-373).
Because sphericity factors are not calculated for each particle but for an assembly of particles, they have to be based on an average size. Thus, the sphericity factor will then be given by the following equation:
[formula] where SW is the powder specific surface area, ρ is the particle density and DMVS is the surface area mean diameter, also referred to as the mean volume-surface diameter, the Sauter diameter or D[3,2]. The Sauter diameter is defined as the diameter of a sphere that has the same volume/surface area ratio as the particle of interest.
A sphericity factor of 1.0 describes a perfect sphere with the greatest ease of flow (Encapsulated and powdered foods, CRC Press 2005). […] In this regard, sphericity factor values below 0.2 are usually found for low-flowability solids in form of platelets or needles. Therefore, a sphericity factor greater than 0.2 generally indicates an acceptable flowing material.

[5] = calculated using the measured particle density value
[6] = calculated using the reported crystal density value
[7] = listed as prior art micronized voriconazole

Particle Size Distribution D10 [1] [μm] | Particle Size Distribution D50 [1] [μm] | Particle Size Distribution D90 [1] [μm] | D[3,2] (Sauter diameter, DMVS) [1] [μm] | Particle Size Distribution D[4,3] [1] [μm] | Specific Surface Area (BET), Sw [2] [m^2/g] | Density (experimental particle density ρ) [3] [g/mL] | sphericity factor Ψw [4, 5] | sphericity factor Ψw [4, 6] | D[3,2] (Sauter diameter, DMVS) [1, 7] | Density (experimental particle density ρ) [3, 7] | SMILES
6.0 | 21.7 | 56.2 | 12.2 | 27.3 | 1.0997 | 1.33 | 0.34 | 0.31 | – | – | C[C@@H](c1ncncc1F)[C@](O)(Cn1cncn1)c1ccc(F)cc1F [Example 3, voriconazole]
7.6 | 32.3 | 92.7 | 15.8 | 42.8 | 1.1451 | 1.37 | 0.24 | 0.23 | – | – | C[C@@H](c1ncncc1F)[C@](O)(Cn1cncn1)c1ccc(F)cc1F [Example 5, voriconazole]
– | 15.2 | – | 8.3 | 28.7 | – | 1.40 | – | – | about 8.3 μm | about 1.400 g/cm^3 | C[C@@H](c1ncncc1F)[C@](O)(Cn1cncn1)c1ccc(F)cc1F [Comparative Example 2, voriconazole, reference compound]
7.5 | 25.3 | 57.4 | 14.3 | 24.9 | 1.1032 | – | – | 0.26 | – | – | C[C@@H](c1ncncc1F)[C@](O)(Cn1cncn1)c1ccc(F)cc1F [Example 7, voriconazole]
8.6 | 33.4 | 92.3 | 17.2 | 43.3 | 0.9769 | 1.40 | 0.25 | 0.23 | – | – | C[C@@H](c1ncncc1F)[C@](O)(Cn1cncn1)c1ccc(F)cc1F [Example 6, voriconazole]
6.0 | 22.4 | 64.0 | 12.3 | 30.3 | 1.0992 | 1.32 | 0.34 | 0.31 | – | – | C[C@@H](c1ncncc1F)[C@](O)(Cn1cncn1)c1ccc(F)cc1F [Example 4, voriconazole]
2.5 | 7.3 | 29.9 | 5.2 | 14.2 | 1.5910 | – | – | 0.50 | – | – | C[C@@H](c1ncncc1F)[C@](O)(Cn1cncn1)c1ccc(F)cc1F [Example 8, voriconazole]
7.4 | 29.7 | 102.8 | 15.4 | 44.5 | 0.9319 | 1.35 | 0.31 | 0.29 | – | – | C[C@@H](c1ncncc1F)[C@](O)(Cn1cncn1)c1ccc(F)cc1F [Example 2, voriconazole]
